Data published in patent publication US20260250318A1, “COMPOSITIONS AND METHODS FOR CROSSING THE BLOOD BRAIN BARRIER” (VOYAGER THERAPEUTICS, INC., priority 2022, published 2026).

Legend:
[1] = test system: brains, heart, liver, muscle, and DRG of the NHPs; test: Maturation of TTM-001 and TTM-002 capsids, NGS enrichment in NHP tissues; format: in vivo; details: relative to AAV9 control
Method in brief: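 Variants carry mutations within and flanking the loop IV peptide insert: positions 450–466 were triplet-randomized, while positions 449–466 received low-frequency point mutations. The combined pool went into two NHPs, and each peptide was scored by NGS enrichment ratio against AAV9.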

[2] = test system: brain; test: Matured TTM-001 and TTM-002 variants, NGS enrichment in mouse brain; format: in vivo, mice; details: relative to AAV9 control
[3] = NGS fold-enrichment, DRG of NHPs
[4] = NGS fold-enrichment, RNA, brain of NHPs
[5] = NGS fold-enrichment, heart of NHPs
[6] = NGS fold-enrichment, liver DNA of NHPs
[7] = NGS fold-enrichment, liver RNA of NHPs
[8] = NGS fold-enrichment, muscle of NHPs
[9] = NGS fold-enrichment, brain of mice
[10] = NGS fold-enrichment of RNA, NHP brain
[11] = NGS fold-enrichment, NHP liver DNA
[12] = NGS fold-enrichment, NHP liver RNA
[13] = NGS fold-enrichment, NHP muscle
[14] = NGS fold-enrichment, mouse brain
[15] = NGS fold-enrichment of matured AAV capsid variants, NHP brain, RNA

Sequence	Fold Enrichment relative to AAV9, DRG (NHP) [1, 3]	Fold Enrichment relative to AAV9, Brain (NHP) [1, 4]	Fold Enrichment relative to AAV9, Heart (NHP) [1, 5]	Fold Enrichment relative to AAV9, Liver DNA (NHP) [1, 6]	Fold Enrichment relative to AAV9, Liver RNA (NHP) [1, 7]	Fold Enrichment relative to AAV9, Muscle (NHP) [1, 8]	Fold Enrichment relative to AAV9, Brain (Mouse) [2, 9]	Fold Enrichment relative to AAV9, Brain (NHP) [1, 10]	Fold Enrichment relative to AAV9, DRG (NHP) ([1]; NGS fold-enrichment, NHP DRG)	Fold Enrichment relative to AAV9, Heart (NHP) ([1]; NGS fold-enrichment, NHP heart)	Fold Enrichment relative to AAV9, Liver DNA (NHP) [1, 11]	Fold Enrichment relative to AAV9, Liver RNA (NHP) [1, 12]	Fold Enrichment relative to AAV9, Muscle (NHP) [1, 13]	Fold Enrichment relative to AAV9, Brain (Mouse) [2, 14]	Fold Enrichment relative to AAV9, Brain (NHP) [1, 15]	Fold Enrichment relative to AAV9, DRG (NHP) ([1]; NHP DRG)	Fold Enrichment relative to AAV9, Heart (NHP) ([1]; NHP heart)	Fold Enrichment relative to AAV9, Liver DNA (NHP) ([1]; NHP liver, DNA)	Fold Enrichment relative to AAV9, Liver RNA (NHP) ([1]; NHP liver, RNA)	Fold Enrichment relative to AAV9, Muscle (NHP) ([1]; NHP muscle)	further results
KTSNASGSPHSKAQNQLT	0.000 fold	73.501 fold	0.000 fold	0.313 fold	0.000 fold	0.297 fold	150.401 fold														
KTVNGHDSPHKSLQNQQT								112.925 fold	0.000 fold	0.301 fold	0.322 fold	0.000 fold	0.059 fold	16.726 fold							
KTVNGNGSPHSKAQNKQT	0.000 fold	81.481 fold	0.000 fold	0.122 fold	0.000 fold	0.000 fold	69.455 fold	81.481 fold	0.000 fold	0.000 fold	0.122 fold	0.000 fold	0.000 fold	69.455 fold							
KTINGSGSPHSKAQAIHT															56.047 fold	0.000 fold	0.000 fold	0.890 fold	0.887 fold	212.32 fold	Fold Enrichment relative to AAV9, Brain (Mouse) ([2]; mouse brain): 81.908 fold
KTENTSGSPHSKAQNQQT	0.000 fold	74.061 fold	0.000 fold	0.730 fold	0.233 fold	0.218 fold	96.249 fold														
KTTNGSGSPHSKAHNQLT	0.000 fold	69.062 fold	0.000 fold	0.000 fold	0.708 fold	0.000 fold	65.505 fold														
KTINGHESPHKSGQNQHS								92.248 fold	0.000 fold	0.032 fold	0.088 fold	0.090 fold	0.012 fold	9.720 fold							
KTVNGSGSPHSKAQNHLT	0.133 fold	59.239 fold	0.034 fold	0.156 fold	0.000 fold	0.000 fold	70.786 fold														
ETINGSGSPHSKAQNLQT	0.221 fold	90.969 fold	1.023 fold	0.813 fold	0.179 fold	0.197 fold	107.216 fold	90.969 fold	0.221 fold	1.023 fold	0.813 fold	0.179 fold	0.197 fold	107.216 fold							
KTINGSGSPHSKAQAIKT	0.255 fold	74.261 fold	0.000 fold	0.132 fold	0.186 fold	0.000 fold	73.560 fold														
KTSNASGSPHSKAQHQQT								165.206 fold	0.000 fold	0.000 fold	0.082 fold	0.000 fold	0.000 fold	40.558 fold							
KGGEGSGSPHSKAQNQQT															58.472 fold	0.000 fold	0.034 fold	0.066 fold	0.037 fold	0.000 fold	Fold Enrichment relative to AAV9, Brain (Mouse) ([2]; mouse brain): 91.023 fold
KAENGSGSPHSKAQNQQT															52.487 fold	0.000 fold	0.157 fold	0.242 fold	0.000 fold	0.029 fold	Fold Enrichment relative to AAV9, Brain (Mouse) ([2]; mouse brain): 120.256 fold
KTEPTSGSPHSKAQNQQT															56.134 fold	0.000 fold	0.000 fold	0.527 fold	0.061 fold	0.000 fold	Fold Enrichment relative to AAV9, Brain (Mouse) ([2]; mouse brain): 143.397 fold
KTELRSGSPHSKAQNQQT															54.289 fold	0.000 fold	0.007 fold	0.239 fold	0.790 fold	0.040 fold	Fold Enrichment relative to AAV9, Brain (Mouse) ([2]; mouse brain): 57.814 fold
KTINGSGSPHSKAQSTMT															51.249 fold	0.018 fold	0.002 fold	0.341 fold	0.321 fold	0.002 fold	Fold Enrichment relative to AAV9, Brain (Mouse) ([2]; mouse brain): 73.213 fold
KTENKSGSPHSKAQNQQT								103.854 fold	0.000 fold	0.037 fold	0.119 fold	0.000 fold	0.000 fold	31.182 fold							
